For assay [1], the system named is Rattus norvegicus. Kind of assay: Percent inhibition of serum creatinine by the compound given as ratio of Cr value in treated to vehicle treated ones after intraperitoneal administration of 1 mg/kg of compound to rats(vehicle 4.91+/-0.10). The format is functional. The conditions noted are these: ip.
In assay [2] the test system is Rattus norvegicus. Kind of assay: Ratio of urinary excretion value (urinary volume) in treated rats to that in control rats, at a peroral dose of 6.25 mg/Kg. Type of assay: functional, Urine.
In assay [3] the test system is Rattus norvegicus. The assay is described as follows: Urea nitrogen concentration measured after intraperitoneal administration of 1 mg/kg of compound to rats(vehicle 154+/-7). Type of assay: functional.
Another assay concerns the target Adenosine A2 receptor (Rattus norvegicus, UniProt P29276+P30543).
For assay [4], the system named is Rattus norvegicus. The assay is described as follows: Serum creatinine concentration measured after intraperitoneal administration of 1 mg/kg of compound to rats(vehicle 4.91+/-0.10). The format is functional.
The target in another assay is T1, Adenosine receptor A1 (Cavia porcellus, UniProt P47745).
T1 sequence (P47745 whole entry): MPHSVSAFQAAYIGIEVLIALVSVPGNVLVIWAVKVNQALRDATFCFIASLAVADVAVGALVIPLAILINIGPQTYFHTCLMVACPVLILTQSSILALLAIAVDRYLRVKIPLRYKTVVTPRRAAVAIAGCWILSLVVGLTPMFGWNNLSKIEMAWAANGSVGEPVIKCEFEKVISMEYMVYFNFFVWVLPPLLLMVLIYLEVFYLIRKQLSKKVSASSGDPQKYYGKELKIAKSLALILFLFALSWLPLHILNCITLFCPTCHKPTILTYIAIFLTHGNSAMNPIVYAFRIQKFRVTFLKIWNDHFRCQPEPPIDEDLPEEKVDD

For assay [5], the system named is Rattus norvegicus. The assay is described as follows: Ratio of urinary excretion value (Na+ concentration) in treated rats to that in control rats, at a peroral dose of 6.25 mg/Kg. The format is functional, Urine.
In assay [6] the test system is Rattus norvegicus. Kind of assay: Percent inhibition of Urea nitrogen by the compound given as ratio of UN value in treated to vehicle treated ones after intraperitoneal administration of 1 mg/kg of compound to rats(vehicle 154+/-7). The format is functional. The conditions noted are these: ip.
Assay [7] concerns Rattus norvegicus. Kind of assay: Ratio of urinary excretion value (urinary volume) in treated rats to that in control rats, at a peroral dose of 0.4 mg/Kg. Type of assay: functional, Urine.
The subject of assay [8] is Rattus norvegicus. Kind of assay: Ratio of urinary excretion value (urinary volume) in treated rats to that in control rats, at a peroral dose of 0.1 mg/Kg. Type of assay: functional, Urine.
Assay [9] has as its system Rattus norvegicus. The assay is described as follows: Ratio of sodium ion/potassium ion concentration in treated rats to that in control rats, at a peroral dose of 0.01 mg/Kg. The format is functional.
In assay [10] the test system is Rattus norvegicus. Kind of assay: Ratio of urinary excretion value (Na+ concentration) in treated rats to that in control rats, at a peroral dose of 0.01 mg/Kg. Type of assay: functional, Urine.
For assay [11], the system named is Rattus norvegicus. The assay is described as follows: Ratio of urinary excretion value (urinary volume) in treated rats to that in control rats, at a peroral dose of 0.01 mg/Kg. The format is functional, Urine.
For assay [12], the system named is Rattus norvegicus. The assay is described as follows: Ratio of urinary excretion value (Na+ concentration) in treated rats to that in control rats, at a peroral dose of 0.4 mg/Kg. The format is functional, Urine.
Assay [13] is filed under the species Rattus norvegicus. The assay is described as follows: Percent inhibition of serum creatinine by the compound given as ratio of Cr value in treated to vehicle treated ones. Type of assay: functional.
Assay [14] relates to Rattus norvegicus. The assay is described as follows: Ratio of sodium ion/potassium ion concentration in treated rats to that in control rats, at a peroral dose of 1.6 mg/Kg. Type of assay: functional.
Assay [15] concerns Rattus norvegicus. The assay is described as follows: Oral diuretic activity was measured after oral administration of 0.1 mg/kg to rats(control volume is 0.96+/-0.09). Type of assay: functional, Urine.
Assay [16] concerns Rattus norvegicus. The assay is described as follows: Ratio of sodium ion/potassium ion concentration in treated rats to that in control rats, at a peroral dose of 0.4 mg/Kg. The format is functional.
Assay [17] concerns Rattus norvegicus. The assay is described as follows: Effect on urinary excretion potassium and sodium after oral administration of 1.6 mg/kg to rats(potassium and sodium excretion in control rat is 0.189+/-0.005). Type of assay: functional, Urine.
Assay [18] relates to Rattus norvegicus. The assay is described as follows: Ratio of urinary excretion value (Na+ concentration) in treated rats to that in control rats, at a peroral dose of 0.1 mg/Kg. Type of assay: functional, Urine.
In assay [19] the test system is Rattus norvegicus. The assay is described as follows: Ratio of urinary excretion value (Na+ concentration) in treated rats to that in control rats, at a peroral dose of 1.6 mg/Kg. The format is functional, Urine.
The test system of assay [20] is Rattus norvegicus. The assay is described as follows: Effect on urinary excretion potassium and sodium after oral administration of 0.01 mg/kg to rats(potassium and sodium excretion in control rat is 0.180+/-0.017). Type of assay: functional, Urine.
Assay [21] deals with Rattus norvegicus. The assay is described as follows: Urea nitrogen concentration measured after intraperitoneal administration of 0.1 mg/kg of compound to rats(vehicle 141.3+/-8.3). The format is functional.
Assay [22] has as its system Rattus norvegicus. Kind of assay: Serum creatinine concentration measured after intraperitoneal administration of 0.1 mg/kg of compound to rats(vehicle 5.43+/-0.11). The format is functional.
Assay [23] relates to Rattus norvegicus. The assay is described as follows: Serum creatinine concentration measured after intraperitoneal administration of 1 mg/kg of compound to rats(vehicle 4.5+/-0.24). Type of assay: functional.
In assay [24] the test system is Rattus norvegicus. Kind of assay: Effect on urinary excretion potassium and sodium after oral administration of 0.1 mg/kg to rats(potassium and sodium excretion in control rat is 0.147+/-0.015). Type of assay: functional, Urine.
Assay [25] relates to Rattus norvegicus. The assay is described as follows: Ratio of urinary excretion value (urinary volume) in treated rats to that in control rats, at a peroral dose of 1.6 mg/Kg. The format is functional, Urine.
Assay [26] deals with Rattus norvegicus. Kind of assay: Urea nitrogen concentration measured after intraperitoneal administration of 1 mg/kg of compound to rats(vehicle 151.5+/-7.4). Type of assay: functional.
Assay [27] deals with Rattus norvegicus. Kind of assay: Effect on urinary excretion potassium and sodium after oral administration of 0.4 mg/kg to rats(potassium and sodium excretion in control rat is 0.0.169+/-0.012). The format is functional, Urine.
The test system of assay [28] is Rattus norvegicus. The assay is described as follows: Oral diuretic activity was measured after oral administration of 0.4 mg/kg to rats(control volume is 0.97+/-0.05). The format is functional, Urine.
For assay [29], the system named is Rattus norvegicus. Kind of assay: Ratio of sodium ion/potassium ion concentration in treated rats to that in control rats, at a peroral dose of 0.1 mg/Kg. Type of assay: functional.
The subject of assay [30] is Rattus norvegicus. The assay is described as follows: Oral diuretic activity was measured after oral administration of 1.6 mg/kg to rats(control volume is 1.12+/-0.05). The format is functional, Urine.
Assay [31] deals with Rattus norvegicus. Kind of assay: Oral diuretic activity was measured after oral administration of 0.01 mg/kg to rats(control volume is 1.05+/-0.11). The format is functional, Urine.

Several values for one entry are separate records, joined by “and”; a condition that tells them apart may be missing. Identical values can stand only once.

What is called inhibition in vivo is the percentage by which the read-out fell short of the control. For orientation: Ki means the dissociation constant of the complex between target and ligand, obtained from inhibition or displacement. Broadly, the Inhibition is the change of the read-out against control, counted positive when it falls.

Description for Adenosine receptor A1: Binding affinity against adenosine A1 receptor in guinea pig forebrain membranes using N6-[3H]cyclohexyladenosine as radioligand

On to `CCCn1c(=O)[nH]c(=O)c2[nH]c(C3CCCC3)nc21`, for which the inhibition in vivo at 1 mg/kg in the assay on Rattus norvegicus [1] came out at 28%; in the assay on Rattus norvegicus [6], 24%. The T/C with Rattus norvegicus [2] is 1.76; in the assay with Rattus norvegicus [5], 2.07. In addition, the UN in the assay on Rattus norvegicus [3] stood at 117 mg/dL. For the same compound, the Ki is more than 100 µM on Adenosine A2 receptor and 1.4 µM on Adenosine receptor A1. The Cr in the assay on Rattus norvegicus [4] stood at 3.51 mg/dL.
For `CCCCn1c(=O)c2nc(C34CC5CC(CC3C5)C4)[nH]c2n(CCCC)c1=O`, the T/C was 2.58 with Rattus norvegicus [7]; 1.83 with Rattus norvegicus [8]; 0.98 with Rattus norvegicus [10]; 0.74 in the assay on Rattus norvegicus [11]; 2.45 with Rattus norvegicus [12]; 1.89 in the assay with Rattus norvegicus [18]. Besides, the figures for the T/C in the assay with Rattus norvegicus [19] and in the assay with Rattus norvegicus [25] were 2.26 and 2.25, respectively. Moreover, the “Na+/K+” value with Rattus norvegicus [9] is given as 1.05; in the assay on Rattus norvegicus [14], 1.61; in the assay on Rattus norvegicus [16], 1.89; in the assay on Rattus norvegicus [29], 1.58. In addition, in the assay listed under Rattus norvegicus [13], the Inhibition is 45% and 19%. The Urine volume in the assay with Rattus norvegicus [15] stood at 1.76 ml 6hr-1 100g-1; in the assay on Rattus norvegicus [28] it was 2.5 ml 6hr-1 100g-1; with Rattus norvegicus [30], 2.52 ml 6hr-1 100g-1; in the assay with Rattus norvegicus [31] it was 0.78 ml 6hr-1 100g-1. The Na in the assay with Rattus norvegicus [17] is given as 0.426 m equiv 6hr-1 100g-1; in the assay with Rattus norvegicus [20], 0.176 m equiv 6hr-1 100g-1; in the assay on Rattus norvegicus [24], 0.279 m equiv 6hr-1 100g-1; with Rattus norvegicus [27], 0.412 m equiv 6hr-1 100g-1. This compound showed a Ki at Adenosine A2 receptor of 1.1 µM. For the same compound, the figures for the UN in the assay on Rattus norvegicus [21] and in the assay with Rattus norvegicus [26] were 119.4 mg/dL and 62.1 mg/dL, respectively. Besides, the Cr in the assay with Rattus norvegicus [22] stood at 2.63 mg/dL; with Rattus norvegicus [23] it was 2.82 mg/dL.

(Values after ChEMBL document CHEMBL1125524, “Adenosine A1 antagonists. 2. Structure-activity relationships on diuretic activities and protective effects against acute renal failure” (J Med Chem, 1992).)
